Values of other authors in patent publication US20040202714A1, “Oral pharmaceutical composition” (Daiichi Suntory Pharma Co., Ltd., priority 1999, published 2004).

Assays:
[1] = test system: oral staphylococci
[2] = test system: enterococci
[3] = test system: genus Bacteroides; conditions: anaerobic bacteria such as the genus Bacteroides
[4] = test system: Streptococcus pyrogenes
[5] = test system: Porphyromonas gingivalis; conditions: pathogenic bacteria of periodontis
[6] = test system: Streptococcus pneumoniae
[7] = test system: bacterial strains from dental infectious diseases; conditions: increasingly resistant strains from dental infectious diseases
[8] = test system: Haemophilus influenzae; conditions: gram-negative bacteria such as Haemophilus influenzae
[9] = test system: methicillin-sensitive Staphylococcus aureus (MSSA)
[10] = test system: penicillin-resistant pneumococci (PRSP)

C[C@@H](O)[C@H]1C(=O)N2C(C(=O)O)=C([C@H]3CCCO3)S[C@H]12 [Compound 1, sodium (+)-(5R, 6S)-6-[(R)-1-hydroxyethyl]-7-oxo-3-[(R)-2-tetrahydrofuryl]4-thia-1-azabicyclo [3.2.0] hept-2-ene-2-carboxylate 5/2 hydrate]
antibacterial activity [1]: potent antibacterial activity
antibacterial activity [2]: potent antibacterial activity
antibacterial spectrum [3]: wide antibacterial spectrum
antibacterial activity [4]: potent antibacterial activity
antibacterial activity [5]: potent antibacterial activity
antibacterial activity [6]: potent antibacterial activity
antibacterial activity [7]: potent antibacterial activity
antibacterial spectrum [8]: wide antibacterial spectrum
antibacterial activity [9]: potent antibacterial activity
antibacterial activity [10]: potent antibacterial activity
